# Results from publication PMC6943638, “Lectin PLL3, a Novel Monomeric Member of the Seven-Bladed β-Propeller Lectin Family” (Molecules, 2019).
# Starred links: 1 amine or outer side, 2 acyl side, 3 side chain; linkers in the order of their positions; H or OH if unused. Residues, ends and D or L forms follow the SMILES beside them. Suc = O=C(CCC(=O)[*:2])[*:1]
# Tests used:
# [1] = biological target: T1, PLL3 (Photorhabdus laumondii subsp. laumondii, UniProt Q7N8I7); assay: Glycan array screening with DyLight 488-labeled PLL3; format: binding
# T1 sequence (Q7N8I7 entry or part of it): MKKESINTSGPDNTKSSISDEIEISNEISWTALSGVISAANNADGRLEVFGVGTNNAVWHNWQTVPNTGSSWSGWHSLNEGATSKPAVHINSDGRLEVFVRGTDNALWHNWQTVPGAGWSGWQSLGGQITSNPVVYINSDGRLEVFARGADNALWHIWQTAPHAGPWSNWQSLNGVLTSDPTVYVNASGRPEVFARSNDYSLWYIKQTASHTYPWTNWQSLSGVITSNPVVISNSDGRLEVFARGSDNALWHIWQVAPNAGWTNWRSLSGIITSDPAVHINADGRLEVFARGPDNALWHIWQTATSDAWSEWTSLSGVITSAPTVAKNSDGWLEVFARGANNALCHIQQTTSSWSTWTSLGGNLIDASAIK
# Excerpt: Purified PLL3 protein was labeled with DyLight 488 NHS Ester (Thermo Scientific, Rockford, MI, USA) according to the manual instructions of the manufacturer. The unbound dye was removed from the solution using the Zeba Spin Desalting Column (Thermo scientific). The labeled lectin was used for glycan array screening using a glycan microarray chip (Semiotik, Moscow, Russia; chip format OSPS280715; slide number 10085636) containing over 600 mammalian and bacterial glycans (all in hexaplicates). The glycan microarray chip was incubated in 1.0 mL of PBS buffer supplemented with 0.1% (v/v) Tween 20 and placed in a humid chamber for 15 min (37 °C, 40 rpm). Then, the buffer was replaced by 0.5 mL PLL3 (200 μg mL^−1) diluted in PBS buffer with 0.1% Tween 20 and 1% (w/v) bovine serum albumin (Serva, Germany). After incubation (90 min, 37 °C, 40 rpm), the chip was washed by decreasing concentrations of PBS with 0.1% Tween 20, followed by multiple immersions in ultrapure water. Subsequently, the chip was dried by air blow. Fluorescence was read with a scanner InnoScan 1100 AL (Innopsys, Carbonne, France) with a 488 nm laser at 20 °C. The data were analyzed with the software Mapix 8.2.2 and an online glycan chip converter (Semiotik, https://rakitko.shinyapps.io/semiotik). The relative fluorescent response of PLL3 binding was calculated from hexaplicates of each glycan immobilized onto the chip. Only glycans with a response three or more times higher than trehalose and concurrently with a signal-to-noise ratio higher than two were considered as significant binders.
# [2] = biological target: T1, PLL3; assay: Isothermal titration calorimetry (ITC); format: binding; conditions: KD
# Procedure: ITC experiments were carried out using an AutoITC200 calorimeter (Malvern, UK) at 25 °C. The purified lectin was dialyzed against 20 mM Tris/HCl, 150 mM NaCl, pH 7.5 buffer before measurements. Individual ligands (L-fucose, αMeFuc, D-galactose, D-glucose, 3-O-methyl-D-glucose, and decavalent fucosylated glycoclusters 4a and 4b) were dissolved in the same buffer. PLL3 (100 μM) in the cell was titrated by the successive addition (2.0 μL) of the ligand in the syringe (20 mM for monosaccharides, 1 mM for multivalent fucosides). Experiments with monosaccharides were performed at stirring 750 rpm with a reference power of 10 μcal s^−1. Experiments with multivalent fucosides were performed at stirring 500 rpm with a reference power of 6 μcal s^−1. Titrations were carried out in three independent measurements for each ligand. Blank measurements were subtracted from collected data. For multivalent fucosides, two blank measurements were performed: titration of the buffer into the cell with PLL3 and titration of the buffer into the buffer. For monosaccharides, the additional blank measurement, the titration of a given ligand into the cell with buffer, was performed. The data were evaluated in software MicroCal PEAQ-ITC Analysis Software (Malvern, UK) by using the global fit method. Integrated heat effects were analyzed by nonlinear regression.
# [3] = biological target: T1, PLL3; assay: Hemagglutination inhibition assay (PLL3 with erythrocytes of blood group O); format: cell-based; conditions: PLL3 50 μM, blood group O erythrocytes; saccharide 100 to 0.1 mM
# Procedure: For the hemagglutination inhibition assay, the PLL3 was mixed with serially diluted saccharides (L-fucose, αMeFuc, D-galactose, D-glucose, and 3-O-methyl-D-glucose) dissolved in PBS buffer, and mixtures were incubated for 15 min at room temperature. Subsequently, erythrocytes of blood group O were added into the mixture with following incubation for 15 min. The final concentration was 50 μM for the PLL3 and 10% (v/v) for erythrocytes. Concentrations of L-fucose and αMeFuc ranged from 50 to 0.05 mM. Concentrations of D-galactose, D-glucose, and 3-O-methyl-D-glucose ranged from 100 to 0.1 mM. Each sample was observed under the optical microscope (Olympus IX81 with camera DP72; 200x magnification; SW CellSens Dimension, Olympus corporation, Tokyo, Japan).
# [4] = glycan array signal of DyLight 488-labeled PLL3 per immobilized glycan or bacterial polysaccharide
# [5] = glycan array signal of DyLight 488-labeled PLL3 per printed glycan, Table S2, file PLU35_second_noheader.gpr
Molecule,"Median [1, 4]","Median [1, 5]",also measured
NCCOCCOCCOCCOCCOCCOCC(=O)NCCOC1OC(COC2OC(COC3OC(CO)C(O)C3OC3OC(CO)C(O)C3O)C(OC3OC(CO)C(O)C3OC3OC(CO)C(O)C3O)C2O)C(O)C1O (stereo not shown),220,–,–
CC(=O)N[C@@H]1C(O)C[C@](O[C@@H]2C(O)[C@H](O[C@@H]3C(CO)OC(NC(=O)CN)C(O)[C@H]3O)OC(CO)[C@@H]2O)(C(=O)O)OC1[C@H](O)[C@H](O)CO (stereo partly shown) [3'SL-Gly],101,–,–
CC(=O)N[C@H]1[C@H]([C@H](O)[C@H](O)CO)O[C@@](O[C@H]2[C@@H](O)[C@@H](CO)O[C@@H](O[C@H]3[C@H](O)[C@@H](NC(C)=O)C(O)O[C@@H]3CO)[C@@H]2O)(C(=O)O)C[C@@H]1O (stereo partly shown) [3'SLN],43,–,–
"COCC1OC(O)C(O)C(OC)C1O (stereo not shown) [3,6-Me2Glc]",74,–,–
CC(=O)N[C@H]1[C@H]([C@H](O)[C@H](O)CO)OC(OC[C@H]2O[C@@H](O[C@H]3[C@H](O)[C@@H](NC(C)=O)C(O)O[C@@H]3CO)[C@H](O)[C@@H](O)[C@H]2O)(C(=O)O)C[C@@H]1O (stereo partly shown) [6'SLN],99,–,–
CC(=O)N[C@H]1[C@H]([C@H](O)[C@H](O)CO)O[C@@](O[C@H](CO)[C@@H](O)[C@@H]2O[C@@](O[C@H](CO)[C@@H](O)[C@@H]3O[C@](O)(C(=O)O)C[C@H](O)[C@H]3NC(C)=O)(C(=O)O)C[C@H](O)[C@H]2NC(C)=O)(C(=O)O)C[C@@H]1O [(Sia)3],158,–,–
CC(=O)N[C@H]1[C@@H](O[C@H]2[C@@H](O)[C@@H](CO)OC(O)[C@@H]2O[C@@H]2O[C@@H](C)[C@@H](O)[C@@H](O)[C@@H]2O)O[C@H](CO)[C@H](O)[C@@H]1O (stereo partly shown) [Atri],167,–,–
CC(=O)N[C@@H]1[C@@H](O)[C@H](O[C@@H]2O[C@H](CO)[C@H](O)[C@H](O[C@H]3O[C@H](CO)[C@H](O)[C@H](O)[C@H]3NC(C)=O)[C@H]2O[C@@H]2O[C@@H](C)[C@@H](O)[C@@H](O)[C@@H]2O)[C@@H](CO)O[C@H]1O [Atype2],158,–,–
OC[C@H]1O[C@H](O[C@H]2[C@@H](O)[C@@H](CO)OC(O)[C@@H]2O)[C@H](O)[C@@H](O)[C@H]1O (stereo partly shown) [Bdi],134,–,–
O=C[C@H](O)[C@@H](O)[C@@H](O)[C@H](O)CO [D-galactose],–,–,"Kd ([2]; stoichiometry fixed to 3, 25 °C): 2.8 ± 0.14 mM; Kd ([2]; stoichiometry fixed to 4, 25 °C): 2.7 ± 0.14 mM; Kd ([2]; stoichiometry fixed to 5, 25 °C): 2.6 ± 0.13 mM; Kd ([2]; stoichiometry fixed to 6, 25 °C): 2.5 ± 0.13 mM; Kd ([2]; stoichiometry fixed to 7, 25 °C): 2.3 ± 0.13 mM; inhibition of hemagglutination [3]: did not inhibit hemagglutination"
O=P(O)(O)OC[C@H]1O[C@H](O)[C@H](O)[C@@H](O)[C@@H]1O [G6P],–,615,–
CC(=O)N[C@H]1[C@@H](OC[C@H](N)C(=O)O)O[C@H](CO)[C@H](O)[C@@H]1O [GalNAca1-OSer],208,–,–
CC(=O)N[C@H]1[C@H](OCCCN)O[C@H](CO)[C@@H](O[C@@H]2O[C@H](CO)[C@H](O)[C@H](O)[C@H]2O)[C@@H]1O [Galb1-4GlcNAcb-sp8],184,–,–
CC(=O)N[C@@H]1[C@@H](O)[C@H](O[C@@H]2O[C@H](CO)[C@@H](O)[C@H](O)[C@H]2NC(C)=O)[C@@H](CO)O[C@H]1NC(=O)C[C@H](N)C(=O)O [GlcNAcb1-4GlcNAcb-Asn],277,–,–
NCC(=O)NCC(=O)NCC(=O)NCC(=O)NCC(=O)NCC(N)=O [Gly6],–,530,–
NCC(O)C(O)C(O)C(O)CO (stereo not shown) [HOCH2(HOCH)4CH2NH2],293,–,–

Molecule,"Median [1, 4]","Median [1, 5]",also measured
C[C@@H]1O[C@@H](O[C@H]2[C@H](O[C@H]3[C@H](O)[C@@H](O)[C@H](O)O[C@@H]3CO)O[C@H](CO)[C@H](O)[C@@H]2O)[C@@H](O)[C@H](O)[C@@H]1O [Htype6],–,474,–
CC(=O)N[C@H]1[C@H](O[C@H]2[C@@H](O)[C@@H](CO)O[C@@H](O[C@H]3[C@H](O)[C@@H](O)C(O)O[C@@H]3CO)[C@@H]2O)O[C@H](CO)[C@@H](O)[C@@H]1O[C@@H]1O[C@H](CO)[C@H](O)[C@H](O)[C@H]1O (stereo partly shown) [LNT],–,349,–
CC(=O)N[C@H]1[C@H](O[C@H]2[C@@H](O)[C@@H](CO)O[C@@H](O[C@H]3[C@H](O)[C@@H](O)C(O)O[C@@H]3CO)[C@@H]2O)O[C@H](CO)[C@@H](O)[C@@H]1O[C@@H]1O[C@H](CO)[C@H](O)[C@H](O[C@]2(C(=O)O)C[C@H](O)[C@@H](NC(C)=O)[C@H]([C@H](O)[C@H](O)CO)O2)[C@H]1O (stereo partly shown) [LSTa],–,328,–
CC(=O)N[C@H]1[C@H](O[C@H]2[C@@H](O)[C@@H](CO)O[C@@H](O[C@@H]([C@H](O)[C@@H](O)C=O)[C@H](O)CO)[C@@H]2O)O[C@H](CO[C@]2(C(=O)O)C[C@H](O)[C@@H](NC(C)=O)[C@H]([C@H](O)[C@H](O)CO)O2)[C@@H](O)[C@@H]1O[C@@H]1O[C@H](CO)[C@H](O)[C@H](O)[C@H]1O [LSTb],–,348,–
O=C[C@@H](O)[C@@H](O)[C@H](O)[C@H](O)COP(=O)(O)O [M6P],148,–,–
CCCCCn1ccc2ccccc21 [NpentylIndol],–,872,–
CC(C)C[C@H](NC(=O)CCC(=O)O)C(=O)N1CCC[C@H]1C(=O)N[C@@H](Cc1c[nH]c2ccccc12)C(=O)N[C@@H](Cc1ccc(O)cc1)C(=O)N[C@@H](CCCNC(=N)N)C(=O)N[C@@H](C)C(=O)N1CCC[C@H]1C(=O)N[C@@H](CCCCN)C(N)=O [RhD] (Suc-LPWYRAPK-NH2),–,563,–
CC(=O)N[C@H]1[C@H]([C@H](O)[C@H](O)CO)OC(O)(C(=O)O)C[C@@H]1O (stereo partly shown) [Sia],112,–,–
OC[C@H]1O[C@H](O[C@H]2O[C@H](CO)[C@@H](O)[C@H](O)[C@H]2O)[C@H](O)[C@@H](O)[C@@H]1O [Treh],–,2512,–
OC[C@H]1O[C@@H](O[C@H]2[C@H](O)[C@@H](O)[C@H](O)O[C@@H]2CO)[C@H](O)[C@@H](O)[C@@H]1O [cello],–,672,–
Chitosan,–,1790,–
Curdlan,–,1158,–
Laminaran,–,417,–
Laminarin,–,954,–
Mannan,–,480,–
Scleroglucan,–,1150,–
